Assay results from patent publication US7413876B2 (priority 1990, dated 2008).

Key:
[1] = test system: 8c cells coexpressing hβAR and rat Gsα; experiment: Shmoo formation (morphology) of yeast strain 8c (gpa1) coexpressing hβAR and rat Gsα
Procedure: Colonies were transferred to similar plates containing 0.5 mM ascorbic acid and the indicated adrenergic ligand(s). After 16-20 hours at 30° C., the colonies were transferred to similar liquid media at a density of 10^6-10^7 cells/ml and examined by phase contrast microscopy.

[2] = test system: pheromone-responsive FUS1 gene promoter; experiment: FUS1-lacZ β-galactosidase induction in 8cl (gpal) cells coexpressing hβAR and rat Gsα; type: cell-based, yeast
Procedure: To confirm that the pheromone signaling pathway was activated by hβAR and rat Gsα, agonist induction of the pheromone-responsive FUSl gene promoter was measured in a strain of yeast derived from 8c cells (8cl) in which a FUS1-lacZ gene fusion had been stably integrated into the genome.
Strains 8c (FIG. 3, legend) and NNY19 (MATa ura3 leu2 his3 trp1 lys2 FUSl-LacZ::LEU2) were modified by integrative transformation with YIpFUS102 (LEU2), S. Nomoto et al., supra, and designated 8cl and NNY19, respectively. These strains were transformed with pYβAR2 and pYSK136Gαs and maintained on minimal selective plates containing glucose and 50 μM CuSO4. […] See J. Miller, supra.
Agonist stimulation was stereoselective and was blocked by addition of a specific antagonist. Agonist responsiveness was dependent on expression of both hβAR and rat Gsα, and required a strain in which the endogenous G protein α-subunit was disrupted.

[3] = target: human β2-adrenergic receptor (hβAR) (Homo sapiens, UniProt P07550)
Procedure: After 36 hours, cells were harvested and spheroplasts were prepared as described. […] Briefly, the spheroplasts were resuspended in 50 mM Tris-HCl pH 7.4, 5 mM EDTA and were lysed by vortex mixing with glass beads for three one-min periods at 4° C.
FIG. 2 illustrates hβAR ligand binding to membranes from pYβAR2-transformed yeast cells. […] Specific binding was defined as the amount of total binding (circles) minus nonspecific binding measured in the presence of 10 μM (−) alprenolol (squares).

[4] = target: T1, Human β-Adrenergic Receptor (Homo sapiens, UniProt P07550); conditions: Monkey COS-7 (pBC12: β, BAR); cited from earlier work
T1 construct: expressed in transfected cells; host or cells: monkey COS-7 cells

CC(C)NCC(O)c1ccc(O)c(O)c1 (stereo not drawn) [isoproterenol]
shmoo formation ([1]; 100 μM isoproterenol, 16-20 hours at 30° C., phase contrast microscopy): induced shmoo formation | induction of β-galactosidase activity ([2]; 8cl (gpal) cells, 4 hour incubation at 30° C.): dramatic isoproterenol-stimulated induction | final β-galactosidase activity relative to α-factor in nontransformed NNY19 cells ([2]; transformed 8cl cells vs NNY19 cells expressing GPA1): comparable to that induced by α-factor

CC(C)(C)NC[C@H](O)COc1cccc2[nH]c(C#N)c(I)c12 [125I-CYP, 125I-labeled cyanopindolol]
Kd ([3]; read-out: Kd for 125I-CYP binding, 125I-CYP 5-400 pM, nonspecific binding with 10 μM (−) alprenolol): 0.093 nM

C=CCc1ccccc1OCC(O)CNC(C)C (stereo not drawn) [alprenolol]
block of isoproterenol-induced shmoo formation ([1]; 100 μM (−) isoproterenol and 50 μM (−) alprenolol): blocked

CC(C)(C)NC[C@H](O)COc1cccc2[nH]c(C#N)c([125I])c12 [125I-CYP, 125I-labeled cyanopindolol]
Bmax, maximum ligand bound ([3]; Yeast SC261 (pYβAR2, pMTL9) membranes): 115 pmol/mg | binding of 125I-CYP to membranes ([3]; membranes from pYβAR2-transformed yeast cells): bound in a saturable manner and with high affinity | Bmax, maximum ligand bound [4]: 24 pmol/mg

(−) epinephrine
Ki [3]: 664 ± 123 nM
